Results from patent publication US20090175852A1, “IMIDAZOPYRAZINES AS PROTEIN KINASE INHIBITORS” (Schering Corporation, priority 2006, published 2009).

How the values were obtained:
CHK-1 = target: T1, CHK-1 (Homo sapiens, UniProt O14757); test: CHK-1 kinase inhibition (Table 4 activity data); assay type: biochemical
T1 sequence (O14757 1-476): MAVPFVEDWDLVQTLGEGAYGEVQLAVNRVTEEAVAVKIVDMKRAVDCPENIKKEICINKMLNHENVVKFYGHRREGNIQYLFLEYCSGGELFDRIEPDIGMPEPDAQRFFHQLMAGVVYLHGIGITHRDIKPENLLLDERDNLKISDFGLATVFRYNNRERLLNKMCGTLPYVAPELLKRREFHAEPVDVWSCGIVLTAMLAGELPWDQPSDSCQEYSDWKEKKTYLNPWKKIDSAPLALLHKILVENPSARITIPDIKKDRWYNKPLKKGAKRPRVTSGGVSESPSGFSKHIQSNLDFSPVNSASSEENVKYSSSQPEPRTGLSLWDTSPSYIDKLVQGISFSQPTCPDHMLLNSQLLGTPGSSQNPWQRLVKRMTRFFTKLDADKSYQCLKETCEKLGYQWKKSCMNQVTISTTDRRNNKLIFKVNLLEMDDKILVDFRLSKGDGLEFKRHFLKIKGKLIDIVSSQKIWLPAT

Mk2 = Mk2 (Homo sapiens, UniProt P49137); test: Mk2 kinase inhibition (Table 4 activity data); assay type: biochemical
Sequence of Mk2 (P49137 whole entry, species assumed): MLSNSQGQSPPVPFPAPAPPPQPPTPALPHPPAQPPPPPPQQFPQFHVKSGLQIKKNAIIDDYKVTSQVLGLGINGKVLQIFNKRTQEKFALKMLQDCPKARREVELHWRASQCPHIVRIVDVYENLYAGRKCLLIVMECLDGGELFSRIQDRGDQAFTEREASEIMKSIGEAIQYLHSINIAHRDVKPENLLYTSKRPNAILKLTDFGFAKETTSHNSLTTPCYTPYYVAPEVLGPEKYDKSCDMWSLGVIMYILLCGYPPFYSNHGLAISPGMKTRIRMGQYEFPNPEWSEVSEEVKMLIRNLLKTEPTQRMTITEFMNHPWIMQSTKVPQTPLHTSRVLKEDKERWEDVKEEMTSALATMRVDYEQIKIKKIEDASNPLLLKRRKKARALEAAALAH

Row | Compound | IC50 (CHK-1) | IC50 (Mk2)
1 | NC(=O)c1cnc(N[C@H]2CCCNC2)c2nc(-c3ccc(Cl)cc3)cn12 [Compound 5] | 39 nM | 650 nM
2 | NC(=O)c1cnc(N[C@H]2CC[C@H](N)CC2)c2nc(-c3ccc(Cl)cc3)cn12 [Compound 12] |  | 60 nM
3 | NC(=O)c1cccc(-c2cn3c(C(N)=O)cnc(N[C@H]4CCCNC4)c3n2)c1 [Compound 39] | 55 nM | 810 nM
4 | N#Cc1cccc(-c2cn3c(C#N)cnc(N[C@H]4CCCNC4)c3n2)c1 [Compound 44] | 870 nM | 
